Measurements reported in PMC5423902, “CXCL9-Derived Peptides Differentially Inhibit Neutrophil Migration In Vivo through Interference with Glycosaminoglycan Interactions” (Frontiers in Immunology, 2017).

Experiments:
[1] = tested on: MSU crystal-induced neutrophil migration; test: MSU crystal-induced gout in mice (neutrophil migration to knee); type: in vivo, mouse (C57BL/6); conditions: 66 µg peptide i.v.; MSU crystals 100 µg, C57BL/6, 3 h, n ≥ 5; Figure 5
Experimental: Monosodium urate crystals were prepared as described previously ([42], [49]) and were injected (100 µg in 10 µl) in the tibiofemoral knee joint of C57Bl/6 mice. A group of mice received CXCL9 peptide or vehicle intravenously and the cells present in the tibiofemoral articulation were harvested 3 h after MSU crystal administration. The total and differential leukocyte counts were determined.
Figure 5 CXCL9(74-93) inhibits CXCL8-induced but not monosodium urate (MSU) crystal-induced neutrophil migration to the knee cavity. CXCL8(1-77) (1 µg) or MSU crystals (100 µg) were injected into the tibiofemoral articulation of C57BL/6 mice (n ≥ 5). Simultaneously, 66 µg of CXCL9(74-93) was injected intravenously and 3 h post injection the number of total cells (A) and neutrophils (B) were evaluated by washing the cavity and differentially counting the leukocyte subtypes on May-Grunwald-Giemsa-stained cytospins. The total numbers of leukocytes and neutrophils are shown for every individual mouse, and the horizontal lines denote the median number of cells. To detect statistically significant differences, the Mann–Whitney U-test was carried out (*p < 0.05; **p < 0.01; ***p < 0.005).

[2] = tested on: MSU crystal-induced neutrophil migration; conditions: murine model; cited from earlier work
Excerpt: Because of their essential role for the migration of leukocytes, chemokines and their GPCRs can serve as potential targets for the development of new anti-inflammatory drugs ([24]–[26]). Several neutralizing ligands or antibodies, modified chemokines or small molecules have been developed as antagonists ([27]–[30]). However, only two chemokine receptor antagonists are currently used as therapeutics, namely, Maraviroc (a CCR5 antagonist) and AMD3100 (a CXCR4 antagonist) ([31], [32]). Remarkably, these antagonists are not used as anti-inflammatory drugs, but, respectively, as an inhibitor of hum ...

[3] = tested on: respiratory syncytial virus; conditions: cited from earlier work
Excerpt: (§1) In several inflammatory diseases, an enhanced expression of chemokines leads to the pathological and continuous accumulation of activated leukocytes in tissues and consequently tissue damage. Thus, a reduction of chemokine activity at sites of excessive inflammation is needed. Although a lot of efforts were invested in the development of small molecule chemokine receptor antagonists, since the discovery of chemokine receptors as members of the GPCR family about two decades ago, success stories are limited to a few drugs that entered the market ([66]). Recently, inhibition of chemokine–GAG inte ...

dengue virus = conditions: cited from earlier work
Excerpt: as §1

herpes simplex virus-1 = conditions: cited from earlier work
Excerpt: as §1

74KKKQKNGKKHQKKKVLKVRK93 [CXCL9(74-93), COOH-terminal peptide of CXCL9 lacking the 10 COOH-terminal amino acids of CXCL9(74-103)]
inhibition of MSU crystal-induced neutrophil migration to the joint [1]: could not inhibit MSU crystal-induced neutrophil migration to the joint

74KKKQKNGKKHQKKKVLKVRKSQRSRQKKTT103 [CXCL9(74-103), COOH-terminal peptide of CXCL9]
inhibition of neutrophil extravasation in MSU crystal-induced gout [2]: able to inhibit neutrophil extravasation
inhibition of viral infection of cells [3]: able to inhibit viral infection of cells
inhibition of viral infection of cells (dengue virus): able to inhibit viral infection of cells
inhibition of viral infection of cells (herpes simplex virus-1): able to inhibit viral infection of cells
